Laboratory results: the NIST ThermoML archive (doi:10.1007/s10765-009-0593-3)

Experiment: xn = mol fraction of the nth substance listed
Settings: 101 kPa, Liquid; for speed of sound: Pulse-echo method

CCCOCC(C)OCC(C)O (stereo not given) [1-(1-methyl-2-propoxyethoxy)-2-propanol] + CCCCN
Settings	mass density, 288.15 K [kg/m3]	mass density, 293.15 K [kg/m3]	mass density, 298.15 K [kg/m3]	mass density, 303.15 K [kg/m3]	mass density, 308.15 K [kg/m3]	speed of sound, 288.15 K [m/s]	speed of sound, 293.15 K [m/s]	speed of sound, 298.15 K [m/s]	speed of sound, 303.15 K [m/s]	speed of sound, 308.15 K [m/s]
x1 = 0.1119	781.657	776.972	772.263	767.527	762.757	1299.1	1277.8	1256.7	1235.5	1214.2
x1 = 0.1625	797.6	792.951	788.269	783.562	778.83	1301.8	1281	1260.2	1239.5	1218.7
x1 = 0.2153	812.62	807.989	803.334	798.647	793.946	1304.3	1283.9	1263.4	1243.2	1222.8
x1 = 0.2414	819.423	814.802	810.159	805.481	800.782	1305.4	1285.2	1264.8	1244.8	1224.6
x1 = 0.3043	834.258	829.657	825.032	820.381	815.702	1307.7	1287.9	1267.8	1248.3	1228.4
x1 = 0.35	843.808	839.22	834.611	829.962	825.299	1309.1	1289.5	1269.7	1250.3	1230.7
x1 = 0.4162	856.225	851.642	847.04	842.409	837.754	1310.7	1291.4	1271.9	1252.8	1233.4
x1 = 0.4519	862.336	857.764	853.179	848.559	843.907	1311.3	1292.2	1272.8	1253.8	1234.6
x1 = 0.4946	869.26	864.701	860.118	855.511	850.865	1311.9	1292.9	1273.7	1254.8	1235.7
x1 = 0.547	877.184	872.638	868.071	863.48	858.867	1312.4	1293.5	1274.5	1255.8	1236.8
x1 = 0.5938	883.779	879.25	874.697	870.123	865.527	1312.6	1293.8	1275	1256.3	1237.5
x1 = 0.6567	891.947	887.44	882.917	878.364	873.793	1312.5	1293.9	1275.2	1256.6	1237.9
x1 = 0.6997	897.047	892.555	888.041	883.505	878.95	1312.2	1293.7	1275.1	1256.5	1238
x1 = 0.7665	904.096	899.635	895.15	890.644	886.119	1311.5	1293	1274.6	1256.1	1237.7
x1 = 0.8068	907.864	903.41	898.94	894.449	889.942	1310.8	1292.3	1274.1	1255.7	1237.4
x1 = 0.8466	911.283	906.844	902.376	897.903	893.412	1310	1291.6	1273.4	1255.2	1236.9
x1 = 0.9038	915.886	911.457	906.999	902.546	898.065	1308.6	1290.3	1272.1	1254.2	1236.1
x1 = 0.9528	919.898	915.486	911.061	906.607	902.137	1307.2	1288.9	1270.9	1253.1	1235.2

CCCOCC(C)OCC(C)O (stereo not given) [1-(1-methyl-2-propoxyethoxy)-2-propanol] + CCCCN(CCCC)CCCC
Settings	mass density, 288.15 K [kg/m3]	mass density, 293.15 K [kg/m3]	mass density, 298.15 K [kg/m3]	mass density, 303.15 K [kg/m3]	mass density, 308.15 K [kg/m3]	speed of sound, 288.15 K [m/s]	speed of sound, 293.15 K [m/s]	speed of sound, 298.15 K [m/s]	speed of sound, 303.15 K [m/s]	speed of sound, 308.15 K [m/s]
x1 = 0.1122	794.307	790.425	786.535	782.639	778.737	1282.3	1263	1243.9	1225	1206.3
x1 = 0.1665	800.621	796.684	792.738	788.781	784.827	1282.3	1262.8	1243.7	1224.8	1206.1
x1 = 0.2084	805.602	801.628	797.652	793.661	789.668	1282.3	1262.9	1243.8	1224.9	1206.2
x1 = 0.2538	811.153	807.13	803.115	799.083	795.057	1282.4	1263.2	1244.1	1225.3	1206.5
x1 = 0.313	818.607	814.554	810.479	806.404	802.329	1282.5	1264	1244.9	1226.1	1207.4
x1 = 0.3558	824.155	820.06	815.967	811.844	807.734	1282.8	1264.8	1245.7	1227	1208.3
x1 = 0.4148	832.006	827.869	823.733	819.576	815.399	1283.3	1266.2	1247.2	1228.5	1209.8
x1 = 0.4472	836.41	832.261	828.099	823.913	819.704	1283.7	1267.1	1248.1	1229.4	1210.8
x1 = 0.5008	843.844	839.656	835.454	831.251	826.995	1284.5	1268.8	1249.8	1231.2	1212.6
x1 = 0.5451	850.136	845.938	841.706	837.473	833.167	1285.5	1270.3	1251.5	1232.8	1214.3
x1 = 0.6077	859.289	855.06	850.786	846.555	842.165	1287.2	1272.8	1254	1235.4	1217
x1 = 0.6566	866.709	862.46	858.15	853.912	849.462	1288.9	1274.9	1256.2	1237.7	1219.3
x1 = 0.7143	875.786	871.507	867.175	862.905	858.43	1291.3	1277.5	1258.8	1240.4	1222.1
x1 = 0.7514	881.851	877.544	873.195	868.91	864.43	1293.2	1279.3	1260.7	1242.3	1224.1
x1 = 0.8016	890.298	885.967	881.597	877.285	872.799	1296.1	1281.7	1263.2	1245	1226.8
x1 = 0.856	897.74	895.367	890.981	886.63	882.174	1299.9	1284.4	1266.1	1247.9	1230
x1 = 0.904	908.188	903.8	899.4	894.989	890.566	1303.7	1286.8	1268.7	1250.6	1232.8
x1 = 0.9553	917.078	912.677	908.256	903.826	899.408	1308.3	1289.5	1271.5	1253.5	1235.9
